The subject of the data set is tobacco budworm (Heliothis virescens [Fabricius]). Briefly: surface-treated diet test against tobacco budworm. To be noted: 0.25 millimolar candidate insecticide on the surface of the diet, second instar larvae, five-day exposure; for Percent Mortality: compared to total number of insects infested; for Percent Growth Inhibition: inhibition of insect weight relative to untreated controls. Type of data set: in vivo. How it is done:
Candidate insecticides were evaluated for activity against the tobacco budworm (Heliothis virescens [Fabricius]) in a surface-treated diet test.
In this test one mL of molten (65-70° C.) wheat germ-based artificial diet was pipetted into each well of a four by six (24 well) multi-well plate (ID# 430345-15.5 mm dia.×17.6 mm deep; Corning Costar Corp., One Alewife Center, Cambridge, Mass. 02140). The diet was allowed to cool to ambient temperature before treatment with candidate insecticide.
For a determination of insecticidal activity, solutions of the candidate insecticides were prepared for testing using a Packard 204DT Multiprobe® Robotic System (Packard Instrument Company, 800 Research Parkway, Meriden, Conn. 06450), in which the robot first diluted a standard 50 millimolar DMSO solution of candidate insecticide with a 1:1 water/acetone solution (V/V) in a ratio of 1:7 stock solution to water/acetone. The robot subsequently pipetted 40 microliters of the so-prepared solution onto the surface of the diet in each of three wells in the 24 multi-well plate. The process was repeated with solutions of seven other candidate insecticides. Once treated, the contents of the multi-well plate were allowed to dry, leaving 0.25 millimoles of candidate insecticide on the surface of the diet, or a concentration of 0.25 millimolar. Appropriate untreated controls containing only DMSO on the diet surface were also included in this test.
For evaluations of the insecticidal activity of a candidate insecticide at varying rates of application, the test was established as described above using sub-multiples of the standard 50 millimolar DMSO solution of candidate insecticide. For example, the standard 50 millimolar solution was diluted by the robot with DMSO to give 5, 0.5, 0.05, 0.005, 0.0005 millimolar, or more dilute solutions of the candidate insecticide. In these evaluations there were six replicates of each rate of application placed on the surface of the diet in the 24 multi-well plate, for a total of four rates of application of candidate insecticide in each plate.
In each well of the test plate was placed one second instar tobacco budworm larvea, each weighing approximately five milligrams. After the larvae were placed in each well, the plate was sealed with clear polyfilm adhesive tape. The tape over each well was perforated to ensure an adequate air supply. The plates were then held in a growth chamber at 25° C. and 60% relative humidity for five days (light 14 hours/day).
After the five-day exposure period insecticidal activity for each rate of application of candidate insecticide was assessed as percent inhibition of insect weight relative to the weight of insects from untreated controls, and percent mortality when compared to the total number of insects infested.

Results on 33 compounds are retold here after patent US7713970B2, “Substituted cyclic urea derivatives” (FMC Corporation, priority 2004, dated 2010).

Turning to `Cc1nn(-c2ccccc2F)c(=O)n1CCCCOc1c(Cl)cc(OCC=C(Cl)Cl)cc1Cl` [Compound 114], the “Percent Mortality” value was 100% and the “Percent Growth Inhibition” value is given as 100%.

Take `O=c1n(CCCCOc2c(Cl)cc(OCC=C(Cl)Cl)cc2Cl)cnn1-c1ccc([N+](=O)[O-])cc1` [Compound 93]: the “Percent Mortality” value worked out at 100% and the “Percent Growth Inhibition” value is on record as 100%.

On to `O=C1CN(CCCCOc2c(Cl)cc(OCC=C(Cl)Cl)cc2Cl)C(=O)N1c1ccc(Cl)cc1` [Compound 576], for which the “Percent Mortality” value stood at 100% and the “Percent Growth Inhibition” value came out at 100%.

For `O=c1n(CCCOc2c(Cl)cc(OCC=C(Cl)Cl)cc2Cl)nnn1Cc1ccccc1Cl` [Compound 523], the “Percent Mortality” value is listed as 100% and the “Percent Growth Inhibition” value is listed as 100%.

For the compound `O=c1n(CCCCOc2c(Cl)cc(OCC=C(Cl)Cl)cc2Cl)cnn1-c1ccccc1Cl` [Compound 92], the “Percent Mortality” value amounted to 100% and the “Percent Growth Inhibition” value is given as 100%.

For the compound `O=c1n(CCCCOc2c(Cl)cc(OCC=C(Cl)Cl)cc2Cl)nnn1-c1ccc(OC(F)(F)F)cc1` [Compound 303], the “Percent Mortality” value turned out to be 100% and the “Percent Growth Inhibition” value is given as 100%.

Regarding `O=c1n(CCCCOc2c(Cl)cc(OCC=C(Cl)Cl)cc2Cl)cnn1-c1cc(Cl)cc(Cl)c1` [Compound 81], the “Percent Mortality” value was found to be 100% and the “Percent Growth Inhibition” value was determined as 100%.

Turning to `O=c1n(CCCCOc2c(Cl)cc(OCC=C(Cl)Cl)cc2Cl)cnn1-c1ccc(Cl)cc1` [Compound 91], the “Percent Mortality” value was found to be 100% and the “Percent Growth Inhibition” value is 100%.

With `O=c1cnn(-c2ccccc2Cl)c(=O)n1CCCCOc1c(Cl)cc(OCC=C(Cl)Cl)cc1Cl` [Compound 652], the “Percent Mortality” value is 100% and the “Percent Growth Inhibition” value is 100%.

For `CC1(C)Cc2cccc(-n3nnn(CCCCOc4c(Cl)cc(OCC=C(Cl)Cl)cc4Cl)c3=O)c2O1` [Compound 335], the “Percent Mortality” value stood at 100% and the “Percent Growth Inhibition” value stood at 100%.

On to `O=c1cnn(-c2ccc(OC(F)F)cc2)c(=O)n1CCCCOc1c(Cl)cc(OCC=C(Cl)Cl)cc1Cl` [Compound 656], for which the “Percent Mortality” value was determined as 100% and the “Percent Growth Inhibition” value worked out at 100%.

For the compound `Cc1nn(-c2ccc(Cl)cc2F)c(=O)n1CCCCOc1c(Cl)cc(OCC=C(Cl)Cl)cc1Cl` [Compound 123], the “Percent Mortality” value worked out at 100% and the “Percent Growth Inhibition” value turned out to be 100%.

Take `O=C1C(=O)N(c2ccc(Cl)cc2)C(=O)N1CCCCOc1c(Cl)cc(OCC=C(Cl)Cl)cc1Cl` [Compound 613]: the “Percent Mortality” value is 100% and the “Percent Growth Inhibition” value came out at 100%.

For the compound `O=c1cnn(-c2cccc(Cl)c2)c(=O)n1CCCCOc1c(Cl)cc(OCC=C(Cl)Cl)cc1Cl` [Compound 650], the “Percent Mortality” value came to 100% and the “Percent Growth Inhibition” value amounted to 100%.

`Cc1ccc(-n2ncn(CCCCOc3c(Cl)cc(OCC=C(Cl)Cl)cc3Cl)c2=O)cc1Cl` [Compound 101]: the “Percent Mortality” value is 100% and the “Percent Growth Inhibition” value is given as 100%.

As to `O=c1n(CCCCOc2c(Cl)cc(OCC=C(Cl)Cl)cc2Cl)nnn1-c1ccc(C(F)(F)F)cc1` [Compound 293], the “Percent Mortality” value is reported as 100% and the “Percent Growth Inhibition” value came out at 100%.

Regarding `O=c1n(CCCCOc2c(Cl)cc(OCC=C(Cl)Cl)cc2Cl)nnn1Cc1ccc(Cl)c(Cl)c1` [Compound 520], the “Percent Mortality” value stood at 0% and the “Percent Growth Inhibition” value is recorded as 58%.

On to `O=c1n(CCCCOc2c(Cl)cc(OCC=C(Cl)Cl)cc2Cl)nnn1Cc1ccc(Cl)cc1Cl` [Compound 517], for which the “Percent Mortality” value is 100% and the “Percent Growth Inhibition” value came out at 100%.

Consider `Cc1cc(-n2ncn(CCCCOc3c(Cl)cc(OCC=C(Cl)Cl)cc3Cl)c2=O)ccc1Cl` [Compound 88], for which the “Percent Mortality” value is 100% and the “Percent Growth Inhibition” value stood at 100%.

For `O=c1cnn(-c2ccc(Cl)cc2)c(=O)n1CCCCOc1c(Cl)cc(OCC=C(Cl)Cl)cc1Cl` [Compound 651], the “Percent Mortality” value amounted to 100% and the “Percent Growth Inhibition” value worked out at 100%.

In the case of `O=c1n(CCCCOc2c(Cl)cc(OCC=C(Cl)Cl)cc2Cl)cnn1-c1ccc(I)cc1` [Compound 90], the “Percent Mortality” value came to 100% and the “Percent Growth Inhibition” value came to 100%.

As to `Cc1nn(-c2ccccc2)c(=O)n1CCCCOc1c(Cl)cc(OCC=C(Cl)Cl)cc1Cl` [Compound 110], the “Percent Mortality” value is listed as 100% and the “Percent Growth Inhibition” value is given as 100%.

With `O=c1n(CCCCOc2c(Cl)cc(OCC=C(Cl)Cl)cc2Cl)cnn1-c1ccc(C(F)(F)F)cc1` [Compound 107, 4-{4-[4-(3,3-Dichloroprop-2-enyloxy)-2,6-dichlorophenoxy]butyl}-1-[4-(trifluoromethyl)-phenyl]-1,2,4-triazolin-5-one], the “Percent Mortality” value is listed as 100% and the “Percent Growth Inhibition” value turned out to be 100%.

On to `O=c1n(CCCOc2c(Cl)cc(OCC=C(Cl)Cl)cc2Cl)nnn1-c1cccc(Cl)c1` [Compound 309], for which the “Percent Mortality” value is on record as 100% and the “Percent Growth Inhibition” value is 100%.

In the case of `O=c1n(CCCCOc2c(Cl)cc(OCC=C(Cl)Cl)cc2Cl)ccn1-c1ccc(Cl)cc1` [Compound 4], the “Percent Mortality” value worked out at 100% and the “Percent Growth Inhibition” value is 100%.

For `CC(C)(C)c1ccc(-n2nnn(CCCCOc3c(Cl)cc(OCC=C(Cl)Cl)cc3Cl)c2=O)cc1` [Compound 291], the “Percent Mortality” value is listed as 100% and the “Percent Growth Inhibition” value was determined as 100%.

As for `O=c1n(CCCCOc2c(Cl)cc(OCC=C(Cl)Cl)cc2Cl)nnn1Cc1ccccc1` [Compound 512], the “Percent Mortality” value is recorded as 100% and the “Percent Growth Inhibition” value was 100%.

Consider `O=c1cnn(-c2ccc(Cl)cc2Cl)c(=O)n1CCCCOc1c(Cl)cc(OCC=C(Cl)Cl)cc1Cl` [Compound 648], for which the “Percent Mortality” value is given as 100% and the “Percent Growth Inhibition” value was found to be 100%.

`O=c1n(CCCCOc2c(Cl)cc(OCC=C(Cl)Cl)cc2Cl)nnn1-c1ccc(Cl)c(Cl)c1` [Compound 306]: the “Percent Mortality” value came out at 100% and the “Percent Growth Inhibition” value came to 100%.

As to `COc1ccc(-n2ncc(=O)n(CCCCOc3c(Cl)cc(OCC=C(Cl)Cl)cc3Cl)c2=O)cc1` [Compound 655], the “Percent Mortality” value worked out at 100% and the “Percent Growth Inhibition” value amounted to 100%.

As for `O=c1n(-c2ccc(Cl)cc2)cnn1CCCCOc1c(Cl)cc(OCC=C(Cl)Cl)cc1Cl` [Compound 41], the “Percent Mortality” value came out at 100% and the “Percent Growth Inhibition” value is listed as 100%.

As for `O=c1cnn(-c2cc(Cl)cc(Cl)c2)c(=O)n1CCCCOc1c(Cl)cc(OCC=C(Cl)Cl)cc1Cl` [Compound 649], the “Percent Mortality” value is 100% and the “Percent Growth Inhibition” value came to 100%.

In the case of `O=c1n(CCOc2c(Cl)cc(OCC=C(Cl)Cl)cc2Cl)nnn1-c1cccc(Cl)c1` [Compound 308], the “Percent Mortality” value is recorded as 100% and the “Percent Growth Inhibition” value is on record as 100%.
